From ChEMBL document CHEMBL5727793, “Covalent inhibitors of PAD4” (2020)

Assay: RapidFire Mass Spectrometry (RFMS) Activity Assay: Compounds were solubilized in 100% DMSO to achieve 100 mM final compound concentration. Compound stock solutions were stored at RT. A series of dilutions were prepared in DMSO and mixed 8 times with 20 μL mixing volume. […] After 5 mins, 10 μL of 100 μM of substrate in buffer (100 mM Tris-HCl pH 7.6, 2 mM DTT, 2 mM CaCl2) was added and the reaction incubated for 60 mins at 37° C. The enzymatic reaction was quenched by addition of 40 μl of 5% TCA in ACN (1.7% TCA final concentration) stop solution. Arginine containing substrate and citrulline containing product (+1 Da mass shift) were subjected to solid phase extraction on Agilent RapidFire (RF) 300 system and detected on a coupled, triple quadrupole Agilent 6460 QQQ mass spectrometry (MS) device under application of multiple reaction monitoring (MRM) for quantitation.

With CN(C)C/C=C/C(=O)N[C@H]1CCN(C(=O)c2ccc3c(c2)nc(-c2cc4cccnc4n2CC2CC2)n3C)C[C@H]1N the IC50 was > 10 µM.
For CN(C)C/C=C/C(=O)N[C@@H]1C[C@H](N)CN(C(=O)c2ccc3c(c2)nc(-c2cc4cccnc4n2CC2CC2)n3C)C1, the IC50 was > 10 µM.
